The text below walks through data of patent publication US5516784A, “Anti-HIV (AIDS) agents” (Schering Corporation, priority 1994, dated 1996).

≈ marks a conversion by molar mass, not a printed value. Bounds are passed on as bounds.

Test [1] addresses T1, HIV1 protease (Human immunodeficiency virus type 1 group M subtype B, UniProt P04585). Nature of the test: Test 1: inhibition of proteolytic activity of HIV-1 protease (HPLC). Type of test: biochemical. Set-up: proteolytic activity of HIV-1 protease. The conditions noted are these: HPLC; HIV Substrate III; read-out: Enzyme Assays (HPLC) IC50. How it is done: TEST I-INHIBITION OF PROTEOLYTIC ACTIVITY OF HIV-1-PROTEASE
The ability of compounds of the invention to inhibit the proteolytic activity of HIV-1 protease was determined by using the method of Louis, et al., Biochem. Biophys. Res. Comm. 159:87-94, (1989), which is herein incorporated by reference. In using the method of Louis et al., HIV Substrate III, His-Lys-Ala-Arg-VaI-Leu-pNO2 Phe-Glu-Ala-Nle-Ser-NH2 purchased from Bachem Bioscience, Inc. Philadelphia, Pa. was used in place of the nonapeptide substrate […]amide.

For the next test, the system named is HIV-1, isolate III B. The experiment in a line: Test 2: inhibition of the growth of HIV-1 in tissue culture cells (CEM-SS, syncytia formation). Type of test: cell-based. The conditions noted are these: Human immunodeficiency virus 1, 168 h, 7 days, read-out: HIVMIC IC50. An excerpt: TEST 2-INHIBITION OF THE GROWTH OF HIV-1 IN TISSUE CULTURE CELLS
This test measured the capability of the compounds to inhibit the growth of HIV-1 in tissue culture cells. CEM-SS cells (human T-lymphocyte derived tissue culture cells) were infected with HIV-1, isolate III B which was produced in tissue culture. After 7 days, the virus has killed the cells as monitored by extensive syncytia formation (cell fusion). The test measured the capability of the chemical synthetic compounds to prevent syncytia formation and cell death. CEM cells were grown at 37° C. in an atmosphere of 5% CO2. HIV isolate III B was prepared by growth in and crude purification from CEM cells. The chemical synthetic compound was added to 96 well microtiter plates and diluted in varying steps across the wells of the plate. Cells and virus were added to each well and the concentration of the chemical synthetic compound required to inhibit syncytia formation by 50% (the IC50) after 7 days was determined. The viability of CEM cells which are not infected with HIV-1 isolate III B was simultaneously determined by the MTT assay, as described in Mossman, J. Immunolog. Methods 65:55-63, 1983, which is herein incorporated by reference.

Test [2] addresses T1, HIV1 protease. Nature of the test: Test 3: inhibition of proteolytic activity of HIV-1 protease by scintillation proximity assay (SPA). Type of test: biochemical. The note with it: SPA; room temperature, 40 minutes; read-out: Enzyme Assays (SPA) IC50. The text has this: TEST 3-INHIBITION OF PROTEOLYTIC ACTIVITY OF HIV-1-PROTEASE AS DETERMINED BY SCINTILLATION […] ASSAY (SPA).
This is an alternative assay to test #1 and is used to determine the ability of compounds to inhibit the HIV1 protease activity. The SPA assay for HIV1 protease has been developed by Amersham Corporation, Arlington Heights, Ill., and is available for commercial use. In this system the substrate for HIV1 protease, AcN-(I^125)[…]SPA bead, is cleaved by the HIV1 protease at the Phe-Phe bond releasing the I^125 -labelled peptide fragment from the SPA bead. This event causes removal of detectable signal from the microsphere bead indicated by reduction in radioactivity (measured in CPM), which is proportional to the proteolytic activity. The substrate, and the HIV 1 protease were incubated in presence of synthetic compound in various dilutions at room temperature for 40 minutes, and the concentration of the compound required to inhibit the proteolytic activity by 50% (IC50) was determined.
(Scintillation proximity formats need no separation of bound from free tracer.)

Regarding `CC(C)(C)NC(=O)c1ccccc1SC[C@H](O)[C@H](Cc1ccccc1)NC(=O)[C@H](CC(N)=O)NC(=O)c1ccc2ccccc2n1` [Compound 2], the IC50 (usually the concentration that gives 50% inhibition) was < 500 nM on HIV1 protease [1] and 7.99 µg/mL (≈ 12.4 µM) in the test with HIV-1, isolate III B.

For `CC(C)(C)NC(=O)c1ccccc1SC[C@@H](O)[C@H](Cc1ccccc1)NC(=O)[C@H](CC(N)=O)NC(=O)c1ccc2ccccc2n1` [Compound 3], the half-maximal inhibitory concentration (IC50) on HIV1 protease [1] was 54 nM; with HIV-1, isolate III B it was 0.537 µg/mL (≈ 0.837 µM).

Take `CC(C)(C)NC(=O)c1ccccc1OC[C@H](O)[C@H](Cc1ccccc1)NC(=O)[C@H](CC(N)=O)NC(=O)c1ccc2ccccc2n1` [Compound 4]: the IC50 on HIV1 protease [1] was determined as 10 nM; in the test on HIV-1, isolate III B it was 1.7 µg/mL (≈ 2.72 µM).

With `CC(C)(C)NC(=O)c1ccccc1OC[C@@H](O)[C@H](Cc1ccccc1)NC(=O)[C@H](CC(N)=O)NC(=O)c1ccc2ccccc2n1` [Compound 5], the IC50 on HIV1 protease [1] is 8 nM; in the test on HIV-1, isolate III B it was 1.77 µg/mL (≈ 2.83 µM).

Regarding `CC(C)(C)NC(=O)c1ccccc1OC[C@H](O)[C@H](Cc1ccccc1)NC(=O)[C@H](CC(N)=O)NC(=O)c1ccc2ccccc2[n+]1[O-]` [Compound 7], the IC50 at HIV1 protease [1] was 50 nM; with HIV-1, isolate III B it was 5.69 µg/mL (≈ 8.87 µM).

With `CCCCNC(=O)c1ccccc1SC[C@H](O)[C@H](Cc1ccccc1)NC(=O)[C@H](CC(N)=O)NC(=O)c1ccc2ccccc2n1` [Compound 8], the IC50 at HIV1 protease [1] is 400 nM; in the test on HIV-1, isolate III B, 28.1 µg/mL (≈ 43.8 µM).

With `CC(C)(C)NC(=O)C1CCCC1SCC(O)[C@H](Cc1ccccc1)NC(=O)[C@H](CC(N)=O)NC(=O)c1ccc2ccccc2n1` (stereo partly shown) [Compound 13], the IC50 worked out at 300 nM at HIV1 protease [1] and 5.07 µg/mL (≈ 8 µM) with HIV-1, isolate III B.

For `NC(=O)C[C@H](NC(=O)c1ccc2ccccc2n1)C(=O)N[C@@H](Cc1ccccc1)[C@@H](O)CSC1CCCC1C(=O)Nc1ccccc1` (stereo partly shown) [Compound 20], the IC50 on HIV1 protease [1] is 74 nM; in the test on HIV-1, isolate III B, 6.26 µg/mL (≈ 9.57 µM).

Regarding `CCC(C)[C@H](NC(=O)c1ccc2ccccc2n1)C(=O)N[C@@H](Cc1ccccc1)[C@@H](O)CSc1ccccc1C(=O)NC(C)(C)C` (stereo partly shown) [Compound 35], the half-maximal inhibitory concentration (IC50) at HIV1 protease [1] was 26 nM; with HIV-1, isolate III B it was 2.1 µg/mL (≈ 3.28 µM).

As to `CCC(C)[C@H](NC(=O)c1ccc2ccccc2n1)C(=O)N[C@@H](Cc1ccccc1)[C@@H](O)COc1ccccc1C(=O)NC(C)(C)C` (stereo partly shown) [Compound 37], the IC50 came to 60 nM on HIV1 protease [1] and 6.08 µg/mL (≈ 9.73 µM) in the test on HIV-1, isolate III B.

As for `CN(C)C(=O)C[C@H](NC(=O)c1ccc2ccccc2n1)C(=O)N[C@@H](Cc1ccccc1)[C@@H](O)CSc1ccccc1C(=O)NC(C)(C)C` [Compound 41], at HIV1 protease [1], the IC50 was > 100 nM.

For `COc1ccc(C[C@H](NC(=O)c2ccc3ccccc3n2)C(=O)N[C@@H](Cc2ccccc2)[C@@H](O)CSc2ccccc2C(=O)NC(C)(C)C)cc1` [Compound 43], the 50% inhibitory concentration (IC50) at HIV1 protease [1] is > 100 nM.

With `CSCC[C@H](NC(=O)c1ccc2ccccc2n1)C(=O)N[C@@H](Cc1ccccc1)[C@@H](O)CSc1ccccc1C(=O)NC(C)(C)C` [Compound 44], at HIV1 protease [1], the IC50 was > 100 nM.

Regarding `CC(C)(C)NC(=O)c1ccccc1S(=O)(=O)C[C@H](O)[C@H](Cc1ccccc1)NC(=O)[C@H](CCS(C)(=O)=O)NC(=O)c1ccc2ccccc2n1` [Compound 45], the IC50 on HIV1 protease [1] is > 100 nM.

In the case of `CC(C)(C)NC(=O)c1ccccc1SC[C@H](O)[C@H](Cc1ccccc1)NC(=O)[C@@H](CC(N)=O)NC(=O)c1ccc2ccccc2n1` [Compound 47], the IC50 on HIV1 protease [1] is > 100 nM.

On to `CC(C)(C)NC(=O)c1ccccc1SC[C@H](O)[C@H](Cc1ccccc1)NC(=O)[C@H](CCC(N)=O)NC(=O)c1ccc2ccccc2n1` [Compound 48], for which the IC50 at HIV1 protease [1] was > 100 nM.

Take `CC(C)[C@H](NC(=O)c1ccc2ccccc2n1)C(=O)N[C@@H](Cc1ccccc1)[C@@H](O)CSc1ccccc1C(=O)NC(C)(C)C` [Compound 49]: the half-inhibitory concentration (IC50) at HIV1 protease [1] worked out at 80 nM; with HIV-1, isolate III B it was 19.4 µg/mL (≈ 30.9 µM).

As to `CC(C)(C)NC(=O)c1ccccc1SC[C@H](O)[C@H](Cc1ccccc1)NC(=O)[C@H](Cc1c[nH]c2ccccc12)NC(=O)c1ccc2ccccc2n1` [Compound 51], the half-maximal inhibitory concentration (IC50) at HIV1 protease [1] was > 5 nM.

Turning to `CC(C)(C)NC(=O)c1ccccc1SC[C@H](O)[C@H](Cc1ccccc1)NC(=O)[C@H](CC(N)=O)NC(=O)c1ccc2ccccc2c1` [Compound 52], the IC50 on HIV1 protease [2] was 390 nM; in the test with HIV-1, isolate III B, 8.58 µg/mL (≈ 13.4 µM).

Take `CCn1cc(C(=O)N[C@@H](CC(N)=O)C(=O)N[C@@H](Cc2ccccc2)[C@@H](O)CSc2ccccc2C(=O)NC(C)(C)C)c(=O)c2ccc(C)nc21` [Compound 53]: the IC50 on HIV1 protease [1] is > 100 nM.

In the case of `CC(C)(C)NC(=O)c1ccccc1SC[C@H](O)[C@H](Cc1ccccc1)NC(=O)[C@H](CC(N)=O)NC(=O)c1ccccn1` [Compound 54], on HIV1 protease [1], the half-maximal inhibitory concentration (IC50) is > 100 nM.

Take `CC(C)(C)NC(=O)c1ccccc1SC[C@H](O)[C@H](Cc1ccccc1)NC(=O)[C@H](CC(N)=O)NC(=O)c1cccc[n+]1[O-]` [Compound 55]: the concentration for half-maximal inhibition (IC50) on HIV1 protease [1] was > 100 nM.

For the molecule `CC(C)(C)NC(=O)c1ccccc1SC[C@H](O)[C@H](Cc1ccccc1)NC(=O)[C@H](CC(N)=O)NC(=O)c1ccc(O)cn1` [Compound 56], on HIV1 protease [1], the IC50 is > 100 nM.

Consider `CC(C)(C)NC(=O)c1ccccc1SC[C@H](O)[C@H](Cc1ccccc1)NC(=O)[C@H](CC(N)=O)NC(=O)c1ccc[n+]([O-])c1` [Compound 57], for which the IC50 at HIV1 protease [1] is > 100 nM.

For `CC(C)(C)NC(=O)c1ccccc1SC[C@H](O)[C@H](Cc1ccccc1)NC(=O)[C@H](CC(N)=O)NC(=O)c1cccnc1O` [Compound 58], the IC50 on HIV1 protease [1] is > 100 nM.

As for `CC(C)(C)NC(=O)c1ccccc1OC[C@H](O)[C@H](Cc1ccccc1)NC(=O)[C@H](CC(N)=O)NC(=O)c1cnc2ccccc2n1` [Compound 59], the 50% inhibitory concentration (IC50) at HIV1 protease [1] is 5 nM; with HIV-1, isolate III B, 1.41 µg/mL (≈ 2.25 µM).

In the case of `CC(C)(C)NC(=O)c1ccccc1OC[C@@H](O)[C@@H](NC(=O)[C@H](CC(N)=O)NC(=O)c1ccc2ccccc2n1)c1ccccc1` [Compound 75], the IC50 on HIV1 protease [1] was > 500 nM.

Turning to `CCC[C@H](NC(=O)[C@H](CC(N)=O)NC(=O)c1ccc2ccccc2n1)[C@H](O)COc1ccccc1C(=O)NC(C)(C)C` [Compound 77], in the test on HIV-1, isolate III B, the half-maximal inhibitory concentration (IC50) turned out to be 17.5 µg/mL (≈ 30.3 µM).

In the case of `CC(C)(C)NC(=O)c1ccccc1SC[C@@H](O)[C@H](CC1CCCCC1)NC(=O)[C@H](CC(N)=O)NC(=O)c1ccc2ccccc2n1` [Compound 78], the half-maximal inhibitory concentration (IC50) on HIV1 protease [2] amounted to 230 nM; in the test with HIV-1, isolate III B it was 0.68 µg/mL (≈ 1.05 µM).

On to `CC(C)(C)NC(=O)c1ccccc1SC[C@H](O)[C@H](Cc1ccc(O)cc1)NC(=O)[C@H](CC(N)=O)NC(=O)c1ccc2ccccc2n1` [Compound 79], for which the IC50 was > 500 nM at HIV1 protease [2] and 9.1 µg/mL (≈ 13.8 µM) with HIV-1, isolate III B.

Regarding `CC(C)(C)NC(=O)c1ccccc1OC[C@H](O)[C@H](Cc1ccccc1)NC(=O)[C@H](CC(N)=O)NC(=O)OCc1ccccc1` [IN 1], the IC50 is 80 nM on HIV1 protease [2] and 4.95 µg/mL (≈ 8.19 µM) with HIV-1, isolate III B.

In the case of `COc1ccc(C[C@H](NC(=O)OC(C)(C)C)C(=O)N[C@@H](Cc2ccccc2)[C@@H](O)CSc2ccccc2C(=O)NC(C)(C)C)cc1` [IN 2], at HIV1 protease [1], the concentration for half-maximal inhibition (IC50) was > 100 nM.

On to `CC(C)(C)NC(=O)c1ccccc1SC[C@H](O)[C@H](Cc1ccccc1)NC(=O)[C@H](CCC(N)=O)NC(=O)OC(C)(C)C` [IN 3], for which the IC50 at HIV1 protease [1] is > 100 nM.

As for `CC(C)[C@H](NC(=O)OC(C)(C)C)C(=O)N[C@@H](Cc1ccccc1)[C@@H](O)CSc1ccccc1C(=O)NC(C)(C)C` [IN 4], the concentration for half-maximal inhibition (IC50) at HIV1 protease [1] is > 100 nM.

`CSCC[C@H](NC(=O)OC(C)(C)C)C(=O)N[C@@H](Cc1ccccc1)[C@@H](O)CSc1ccccc1C(=O)NC(C)(C)C` [IN 5]: the IC50 at HIV1 protease [1] is > 100 nM.

With `CC(C)(C)NC(=O)c1ccccc1SC[C@H](O)[C@H](Cc1ccccc1)NC(=O)[C@H](Cc1c[nH]c2ccccc12)NC(=O)OC(C)(C)C` [IN 6], the IC50 on HIV1 protease [1] was > 100 nM.
